Measured values reported in patent US12643882B2, “Inhibitors of human respiratory syncytial virus and metapneumovirus” (priority 2022, dated 2026).
Where two headings read alike, the source gives them in different places.

What was measured:
hMPV-GFP virus = assay: microbe, parasite or virus in culture; format: cell-based, human metapneumovirus
Summary of the method: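 Antiviral IC50 was derived from imaging counts of GFP-expressing cells, with CC50 from a same-well CellTiter-Glo read, both by 4-parameter logistic fitting. VERO cells plus hMPV-GFP (MOI 1.25) were exposed 48 h at 37 °C to 10-point 3-fold compound dilutions (typical final 40,300–2 nM).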

RSV-A2-GFP virus = assay: microbe, parasite or virus in culture; format: cell-based, Human Respiratory Syncytial Virus
Summary of the method: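 IC50 (GFP-expressing cell counts by Acumen imaging) and CC50 (same-well CellTiter-Glo) were obtained by 4-parameter logistic fitting. Compounds were tested in 10-point 3-fold series for 96 h at 37° C, 5% CO2. Thawed Calu-1 ARF cells were infected at MOI 1.2 with GFP-reporter RSV-A2 in 2% FBS DMEM.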

[1] = VERO cells infected with hMPV-GFP, 48 hrs, GFP-expressing cells counted, read-out: hMPV EC50
[2] = Calu-1 cells infected with RSV-A2-GFP, 96 hrs, GFP-expressing cells counted, read-out: RSV EC50
[3] = human metapneumovirus, Vero, 48 h, read-out: hMPV EC50, VERO cells infected with hMPV-GFP, 48 hrs, GFP-expressing cells counted
[4] = human respiratory syncytial virus, Calu-1, 96 h, read-out: RSV EC50, Calu-1 cells infected with RSV-A2-GFP, 96 hrs, GFP-expressing cells counted
[5] = read-out: hMPV EC50, VERO cells infected with hMPV-GFP, 48 hrs, GFP-expressing cells counted

Compound | EC50 (hMPV-GFP virus; [1]) [nM] | EC50 (RSV-A2-GFP virus; [2]) [nM] | EC50 (hMPV-GFP virus; [3]) [nM] | EC50 (RSV-A2-GFP virus; [4]) [nM] | other results
Cc1nc(-c2ncccn2)sc1C(=O)N1C[C@@H]2[C@H](C1)[C@H]2Oc1cc(C(C)(C)N)cc(C2=CCC3(CCC3)CC2)n1 [Example 48, ((1R,5S,6s)-6-((4-(2-aminopropan-2-yl)-6-(spiro[3.5]non-6-en-7-yl)pyridin-2-yl)oxy)-3-azabicyclo[3.1.0]hexan-3-yl)(4-methyl-2-(pyrimidin-2-yl)thiazol-5-yl)methanone] | > 100 | < 10 | – | – | –
Cc1nc(-c2ncccn2)sc1C(=O)N1C[C@@H]2C(Oc3cc(C(C)(N)CO)cc(-c4ccc(F)cc4)n3)[C@@H]2C1 (single isomer, unassigned; enantiomer 2) [Example 113B] | > 100 | < 10 | – | – | –
Cc1ccc(-c2cc(C(C)(C)N)cc(O[C@H]3[C@@H]4CN(C(=O)c5sc(-c6ncccn6)nc5C)C[C@@H]43)n2)c(F)c1 [Example 38, ((1R,5S,6s)-6-((4-(2-aminopropan-2-yl)-6-(2-fluoro-4-methylphenyl)pyridin-2-yl)oxy)-3-azabicyclo[3.1.0]hexan-3-yl)(4-methyl-2-(pyrimidin-2-yl)thiazol-5-yl)methanone] | 10 to 100 | < 10 | – | – | –
Cn1nc(-c2ncccn2)cc1C(=O)N1C[C@@H]2[C@H]1C[C@H]2Oc1cc(C(C)(C)N)cc(-c2ccc(F)cc2)n1 (single isomer, unassigned; enantiomer 2) [Example 4] | – | – | > 100 | 10 to 100 | –
Cc1nc(-c2ncccn2)sc1C(=O)N1C[C@@H]2[C@H](C1)[C@H]2Oc1cc(C(C)(C)N)cc(-c2ccc(F)c(Cl)c2)n1 [Example 17, ((1R,5S,6s)-6-((4-(2-aminopropan-2-yl)-6-(3-chloro-4-fluorophenyl)pyridin-2-yl)oxy)-3-azabicyclo[3.1.0]hexan-3-yl)(4-methyl-2-(pyrimidin-2-yl)thiazol-5-yl)methanone] | 10 to 100 | < 10 | – | – | –
Cc1nn(-c2ncccn2)cc1C(=O)N1C[C@@H]2[C@H](C1)[C@H]2Oc1cc(C(C)(C)N)cc(-c2ccc(F)cc2)n1 [Example 61, ((1R,5S,6s)-6-((4-(2-aminopropan-2-yl)-6-(4-fluorophenyl)pyridin-2-yl)oxy)-3-azabicyclo[3.1.0]hexan-3-yl)(3-methyl-1-(pyrimidin-2-yl)-1H-pyrazol-4-yl)methanone] | – | – | > 100 | < 10 | –
COc1cc(C(F)(F)F)ccc1-c1cc(C(C)(C)N)cc(O[C@H]2[C@@H]3CN(C(=O)c4cn(-c5ncccn5)nc4C)C[C@@H]32)n1 [Example 88, ((1R,5S,6s)-6-((4-(2-aminopropan-2-yl)-6-(2-methoxy-4-(trifluoromethyl)phenyl)pyridin-2-yl)oxy)-3-azabicyclo[3.1.0]hexan-3-yl)(3-methyl-1-(pyrimidin-2-yl)-1H-pyrazol-4-yl)methanone] | > 100 | < 10 | – | – | –
Cc1nn(-c2ncccn2)cc1C(=O)N1C[C@@H]2[C@H](C1)[C@H]2Oc1cc(C(C)(C)N)cc(N2CCC(C)(C)CC2)n1 [Example 100, ((1R,5S,6s)-6-((4-(2-aminopropan-2-yl)-6-(4,4-dimethylpiperidin-1-yl)pyridin-2-yl)oxy)-3-azabicyclo[3.1.0]hexan-3-yl)(3-methyl-1-(pyrimidin-2-yl)-1H-pyrazol-4-yl)methanone] | > 100 | < 10 | – | – | –
Cn1nc(-c2ncccn2)cc1C(=O)N1C[C@@H]2[C@H](C1)[C@H]2Oc1cc(C(C)(C)N)cc(-n2ccc3c(F)cccc32)n1 [Example 60, ((1R,5S,6s)-6-((4-(2-aminopropan-2-yl)-6-(4-fluoro-1H-indol-1-yl)pyridin-2-yl)oxy)-3-azabicyclo[3.1.0]hexan-3-yl)(1-methyl-3-(pyrimidin-2-yl)-1H-pyrazol-5-yl)methanone] | – | – | 10 to 100 | < 10 | –
Cc1nn(-c2ncccn2)cc1C(=O)N1C[C@H]2[C@H](Oc3cc(C(C)(C)N)cc(-c4ccc(F)cc4F)n3)[C@@]2(C)C1 (single isomer, unassigned; enantiomer 1) [Example 109A] | – | – | – | < 10 | EC50 (hMPV-GFP virus; [5]): > 100 nM
Cc1nc(-c2ncccn2)sc1C(=O)N1C[C@H]2[C@H](Oc3cc(C(C)(C)N)cc(-c4ccc(F)cc4)n3)[C@@]2(C)C1 (single isomer, unassigned; enantiomer 1) [Example 103A] | – | – | 10 to 100 | < 10 | –
Cn1nc(-c2ncccn2)cc1C(=O)N1C[C@H]2[C@H](Oc3cc(C(C)(C)N)cc(-c4ccc(F)cc4F)n3)[C@@]2(C)C1 (single isomer, unassigned; enantiomer 1) [Example 108A] | – | – | > 100 | < 10 | –
Cc1nc(-c2ncccn2)sc1C(=O)N1C[C@@H]2[C@H](C1)[C@H]2Oc1cc(C(C)(C)N)cc(-c2cc(F)c(F)c(F)c2)n1 [Example 13, ((1R,5S,6s)-6-((4-(2-aminopropan-2-yl)-6-(3,4,5-trifluorophenyl)pyridin-2-yl)oxy)-3-azabicyclo[3.1.0]hexan-3-yl)(4-methyl-2-(pyrimidin-2-yl)thiazol-5-yl)methanone] | – | – | 10 to 100 | < 10 | –
Cc1nc(-c2ncccn2)sc1C(=O)N1C[C@@H]2[C@H](C1)[C@H]2Oc1cc(C(C)(C)N)cc(-c2ccc(F)c3ccccc23)n1 [Example 42, ((1R,5S,6s)-6-((4-(2-aminopropan-2-yl)-6-(4-fluoronaphthalen-1-yl)pyridin-2-yl)oxy)-3-azabicyclo[3.1.0]hexan-3-yl)(4-methyl-2-(pyrimidin-2-yl)thiazol-5-yl)methanone] | 10 to 100 | < 10 | – | – | –
Cc1nn(-c2ncccn2)cc1C(=O)N1C[C@@H]2[C@H](C1)[C@H]2Oc1cc(C2(C)CCCN2)cc(-c2ccc(F)cc2)n1 (single isomer, unassigned; enantiomer 1) [Example 112] | – | – | > 100 | < 10 | –
Cc1nc(-c2ccccn2)sc1C(=O)N1C[C@@H]2[C@H](C1)[C@H]2Oc1cc(C(C)(C)N)cc(-c2ccc(F)cc2)n1 [Example 12, ((1R,5S,6s)-6-((4-(2-aminopropan-2-yl)-6-(4-fluorophenyl)pyridin-2-yl)oxy)-3-azabicyclo[3.1.0]hexan-3-yl)(4-methyl-2-(pyridin-2-yl)thiazol-5-yl)methanone] | > 100 | < 10 | – | – | –
CC(O)c1nn(-c2ncccn2)cc1C(=O)N1C[C@@H]2C(Oc3cc(C(C)(C)N)cc(-c4ccc(F)c(F)c4)n3)[C@@H]2C1 (single isomer, unassigned; enantiomer 1) [Example 96A] | > 100 | < 10 | – | – | –
Cc1nn(-c2ncccn2)c(C)c1C(=O)N1C[C@@H]2[C@H](C1)[C@H]2Oc1cc(C(C)(C)N)cc(-c2ccc(F)cc2)n1 [Example 73, ((1R,5S,6s)-6-((4-(2-aminopropan-2-yl)-6-(4-fluorophenyl)pyridin-2-yl)oxy)-3-azabicyclo[3.1.0]hexan-3-yl)(3,5-dimethyl-1-(pyrimidin-2-yl)-1H-pyrazol-4-yl)methanone] | > 100 | < 10 | – | – | –
CCc1nn(-c2ncccn2)cc1C(=O)N1C[C@@H]2[C@H](C1)[C@H]2Oc1cc(C(C)(C)N)cc(N2CCC(C)(C)CC2)n1 [Example 124, ((1R,5S,6s)-6-((4-(2-aminopropan-2-yl)-6-(4,4-dimethylpiperidin-1-yl)pyridin-2-yl)oxy)-3-azabicyclo[3.1.0]hexan-3-yl)(3-ethyl-1-(pyrimidin-2-yl)-1H-pyrazol-4-yl)methanone] | > 100 | < 10 | – | – | –
Cn1nc(-c2ncccn2)cc1C(=O)N1C[C@@H]2[C@H](C1)[C@H]2Oc1cc(C(C)(C)N)cc(-c2ccc(C(F)(F)F)cc2)n1 [Example 59, ((1R,5S,6s)-6-((4-(2-aminopropan-2-yl)-6-(4-(trifluoromethyl)phenyl)pyridin-2-yl)oxy)-3-azabicyclo[3.1.0]hexan-3-yl)(1-methyl-3-(pyrimidin-2-yl)-1H-pyrazol-5-yl)methanone] | 10 to 100 | < 10 | – | – | –
CC(C)(N)c1cc(O[C@H]2[C@@H]3CN(C(=O)c4cn(-c5ncccn5)nc4C(F)F)C[C@@H]32)nc(-c2ccc(F)c(F)c2)c1 [Example 91, ((1R,5S,6s)-6-((4-(2-aminopropan-2-yl)-6-(3,4-difluorophenyl)pyridin-2-yl)oxy)-3-azabicyclo[3.1.0]hexan-3-yl)(3-(difluoromethyl)-1-(pyrimidin-2-yl)-1H-pyrazol-4-yl)methanone] | > 100 | < 10 | – | – | –
Cc1nn(-c2ncccn2)cc1C(=O)N1C[C@H]2[C@H](Oc3cc(C(C)(C)N)cc(-c4ccc(C(F)(F)F)cc4)n3)[C@@]2(C)C1 (single isomer, unassigned; enantiomer 2) [Example 111B] | – | – | – | – | EC50 (hMPV-GFP virus; [5]): 10 to 100 nM; EC50 (RSV-A2-GFP virus; read-out: RSV EC50, Calu-1 cells infected with RSV-A2-GFP, 96 hrs, GFP-expressing cells counted): < 10 nM
CC(C)(N)c1cc(O[C@H]2[C@@H]3CN(C(=O)c4cn(-c5ncccn5)nc4C(F)(F)F)C[C@@H]32)nc(-c2ccc(C(F)(F)F)cc2)c1 [Example 93, ((1R,5S,6s)-6-((4-(2-aminopropan-2-yl)-6-(4-(trifluoromethyl)phenyl)pyridin-2-yl)oxy)-3-azabicyclo[3.1.0]hexan-3-yl)(1-(pyrimidin-2-yl)-3-(trifluoromethyl)-1H-pyrazol-4-yl)methanone] | > 100 | < 10 | – | – | –
